Assay results from patent publication US9815796B2 (Merck Sharp & Dohme Corp., priority 2013, dated 2017).
Like-named read-outs stand apart in the source and are kept apart here.

Legend:
Rhesus PDE2A3 = Rhesus PDE2A3 (Macaca mulatta, UniProt B3VTJ2); test: PDE2 fluorescence polarization (IMAP FP) inhibition assay, rhesus enzyme; assay type: biochemical, rhesus macaque
Outline: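 IMAP FP (mP from parallel and perpendicular fluorescence against substrate-only control) was read ≥1 h after adding binding reagent. The preceding 60 min room-temperature reaction contained FAM-cAMP (50 nM) and cGMP (1 uM) in pH 7.2 Tris buffer with MgCl2 and DTT. Enzyme was supernatant of sonicated AD293 cells expressing rhesus PDE2A3; compounds were 3-fold titrated, DMSO 1% final.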

human PDE2A1 = human PDE2A1 (Homo sapiens (Human), UniProt O00408); test: IMAP FP PDE selectivity panel, human PDE2A1; assay type: biochemical
Sequence of human PDE2A1 (O00408 other isoform, or with tags, fused parts or gaps): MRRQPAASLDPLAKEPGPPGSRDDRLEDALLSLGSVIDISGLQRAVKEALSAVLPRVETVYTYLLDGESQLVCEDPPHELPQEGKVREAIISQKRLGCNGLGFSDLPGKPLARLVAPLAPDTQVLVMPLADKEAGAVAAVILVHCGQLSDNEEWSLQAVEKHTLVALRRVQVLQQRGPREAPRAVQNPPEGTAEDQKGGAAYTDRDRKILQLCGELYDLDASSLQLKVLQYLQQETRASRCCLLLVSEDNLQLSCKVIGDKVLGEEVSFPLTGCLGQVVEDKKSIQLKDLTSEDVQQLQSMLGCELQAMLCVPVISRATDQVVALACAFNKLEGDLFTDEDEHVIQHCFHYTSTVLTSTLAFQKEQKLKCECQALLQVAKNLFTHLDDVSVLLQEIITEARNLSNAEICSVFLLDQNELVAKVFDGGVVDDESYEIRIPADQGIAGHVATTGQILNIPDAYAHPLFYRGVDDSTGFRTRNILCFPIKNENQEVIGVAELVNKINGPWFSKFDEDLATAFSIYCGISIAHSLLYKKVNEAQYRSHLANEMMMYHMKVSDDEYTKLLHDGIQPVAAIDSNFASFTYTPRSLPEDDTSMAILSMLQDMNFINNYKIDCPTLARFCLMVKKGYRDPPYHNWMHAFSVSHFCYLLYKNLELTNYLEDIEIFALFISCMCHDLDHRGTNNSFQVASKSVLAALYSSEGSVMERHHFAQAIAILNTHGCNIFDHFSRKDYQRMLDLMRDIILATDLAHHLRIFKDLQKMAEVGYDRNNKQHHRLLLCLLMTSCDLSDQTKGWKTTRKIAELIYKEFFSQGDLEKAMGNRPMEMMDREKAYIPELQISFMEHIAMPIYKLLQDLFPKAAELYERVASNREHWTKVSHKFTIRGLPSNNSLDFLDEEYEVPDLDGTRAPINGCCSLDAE
Outline: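 IMAP FP format: substrate 50 nM FAM-cAMP plus 1000 nM cGMP, enzyme (insect-cell GST-tagged human PDE2A1) at ~20% conversion, 60 min reaction at room temperature. Apparent inhibition constants calculated from parallel/perpendicular fluorescence with KM 10,000 nM.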

[1] = Rhesus PDE2, Lab A, read-out: Rhesus PDE2 Ki (nM) - Lab A
[2] = Human PDE2, Lab A, read-out: Human PDE2 Ki (nM) - Lab A

Sequence of Rhesus PDE2A3 (B3VTJ2 1-941): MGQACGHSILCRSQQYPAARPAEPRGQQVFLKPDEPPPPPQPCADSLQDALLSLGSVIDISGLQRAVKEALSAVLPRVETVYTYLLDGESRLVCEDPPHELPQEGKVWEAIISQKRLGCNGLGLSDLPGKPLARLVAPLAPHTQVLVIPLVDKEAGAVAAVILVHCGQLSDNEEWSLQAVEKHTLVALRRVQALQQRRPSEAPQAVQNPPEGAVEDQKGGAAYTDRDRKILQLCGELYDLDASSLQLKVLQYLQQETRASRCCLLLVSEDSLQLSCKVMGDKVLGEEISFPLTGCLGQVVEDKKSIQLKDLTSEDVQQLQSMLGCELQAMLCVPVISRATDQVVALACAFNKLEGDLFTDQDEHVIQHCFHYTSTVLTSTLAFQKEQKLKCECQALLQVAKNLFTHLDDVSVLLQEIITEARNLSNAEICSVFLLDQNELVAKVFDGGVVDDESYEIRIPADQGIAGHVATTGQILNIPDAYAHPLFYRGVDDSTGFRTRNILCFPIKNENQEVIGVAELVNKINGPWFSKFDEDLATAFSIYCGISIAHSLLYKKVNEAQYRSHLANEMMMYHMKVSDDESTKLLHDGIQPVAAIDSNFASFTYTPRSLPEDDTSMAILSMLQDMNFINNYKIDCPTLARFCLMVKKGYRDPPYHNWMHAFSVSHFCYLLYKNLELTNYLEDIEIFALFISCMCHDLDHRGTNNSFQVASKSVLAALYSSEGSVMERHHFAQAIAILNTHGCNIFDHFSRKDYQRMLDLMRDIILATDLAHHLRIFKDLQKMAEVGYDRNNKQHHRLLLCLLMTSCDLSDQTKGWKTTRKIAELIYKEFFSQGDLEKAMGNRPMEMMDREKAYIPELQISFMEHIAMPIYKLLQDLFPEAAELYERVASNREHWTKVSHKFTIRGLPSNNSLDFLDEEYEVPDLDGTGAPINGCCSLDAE

Row | Structure (SMILES) | Ki (Rhesus PDE2A3; [1]) [nM] | Ki (human PDE2A1; [2]) [nM] | Ki (Rhesus PDE2A3; Rhesus PDE2, Lab B, read-out: Rhesus PDE2 Ki (nM) - Lab B) [nM] | Ki (human PDE2A1; Human PDE2, Lab B, read-out: Human PDE2 Ki (nM) - Lab B) [nM]
1 | O=C(NC1(c2ccc(SC(F)(F)F)cc2)CC1)c1cc(=O)[nH]c(-c2ccccc2)n1 [Example 159, 6-oxo-2-phenyl-N-(1-{4-[(trifluoromethyl)sulfanyl]phenyl}cyclopropyl)-1,6-dihydropyrimidine-4-carboxamide] | 7.6 | 4.9 | – | –
2 | CC(C)(NC(=O)c1cc(=O)[nH]c(-c2ccccc2)n1)c1ccc(OC(F)(F)F)c(F)c1 [Example 161, N-{1-[3-fluoro-4-(trifluoromethoxy)phenyl]-1-methylethyl}-6-oxo-2-phenyl-1,6-dihydropyrimidine-4-carboxamide] | 88 | 60 | – | –
3 | CCC(NC(=O)c1cc(=O)[nH]c(-c2ccccc2)n1)c1ccc(C(C)(C)C)cc1 (stereo not drawn) [Example 163, N-[1-(4-tert-butylphenyl)propyl]-6-oxo-2-phenyl-1,6-dihydropyrimidine-4-carboxamide] | 61 | 36 | – | –
4 | CC(NC(=O)c1cc(=O)[nH]c(-c2ccccc2)n1)c1ccc(C2CC2)cc1 (stereo not drawn) [Example 164, N-[1-(4-cyclopropylphenyl)ethyl]-6-oxo-2-phenyl-1,6-dihydropyrimidine-4-carboxamide] | 9 | 9.4 | – | –
5 | CCc1ccc(C(C)NC(=O)c2cc(=O)[nH]c(-c3ccccc3)n2)cc1 (stereo not drawn) [Example 165, N-[1-(4-ethylphenyl)ethyl]-6-oxo-2-phenyl-1,6-dihydropyrimidine-4-carboxamide] | 16 | 12 | – | –
6 | CC(C)[C@@H](NC(=O)c1cc(=O)[nH]c(-c2ccccc2)n1)c1ccc(OC(F)(F)F)cc1 [Example 166, N-{(1R)-2-methyl-1-[4-(trifluoromethoxy)phenyl]propyl}-6-oxo-2-phenyl-1,6-dihydropyrimidine-4-carboxamide] | 3.3 | 2.1 | – | –
7 | CC(C)[C@@H](NC(=O)c1cc(=O)[nH]c(-c2ccccc2)n1)c1ccc(C(F)(F)F)cc1 [Example 167, N-{(1R)-2-methyl-1-[4-(trifluoromethyl)phenyl]propyl}-6-oxo-2-phenyl-1,6-dihydropyrimidine-4-carboxamide] | 2.3 | 1.9 | 3.5 | 2.3
8 | O=C(NC1(c2ccc(SC(F)(F)F)cc2)CCC1)c1cc(=O)[nH]c(-c2ccccc2)n1 [Example 171, 6-oxo-2-phenyl-N-(1-{4-[(trifluoromethyl)sulfanyl]phenyl}cyclobutyl)-1,6-dihydropyrimidine-4-carboxamide] | 28 | 32 | – | –
9 | CC[C@@H](NC(=O)c1cc(=O)[nH]c(-c2ccccc2)n1)c1ccc(OC(F)(F)F)c(F)c1 [Example 172] | 2.7 | 1.9 | – | –
10 | Cc1cc(C(F)(F)F)ccc1C(C)NC(=O)c1cc(=O)[nH]c(-c2ccccc2)n1 (stereo not drawn) [Example 173, N-{1-[2-methyl-4-(trifluoromethyl)phenyl]ethyl}-6-oxo-2-phenyl-1,6-dihydropyrimidine-4-carboxamide] | 90 | 76 | – | –
11 | O=C(N[C@@H](c1ccc(C(F)(F)F)c(F)c1)C1CC1)c1cc(=O)[nH]c(-c2ccccc2)n1 [Example 174, N-{(R)-cyclopropyl[3-fluoro-4-(trifluoromethyl)phenyl]methyl}-6-oxo-2-phenyl-1,6-dihydropyrimidine-4-carboxamide] | 5.7 | 4.5 | – | –
12 | O=C(N[C@@H](c1ccc(OC(F)(F)F)cc1)C1CC1)c1cc(=O)[nH]c(-c2ccccc2)n1 [Example 175, N-{(R)-cyclopropyl[4-(trifluoromethoxy)phenyl]methyl}-6-oxo-2-phenyl-1,6-dihydropyrimidine-4-carboxamide] | 3.9 | 3.9 | – | –
13 | O=C(N[C@@H](c1ccc(OC(F)(F)F)c(F)c1)C1CC1)c1cc(=O)[nH]c(-c2ccccc2)n1 [Example 176] | 4.8 | 3.9 | – | –
14 | O=C(N[C@@H](c1ccc(C(F)(F)F)cc1)C1CC1)c1cc(=O)[nH]c(-c2ccccc2)n1 [Example 177, N-{(R)-cyclopropyl[4-(trifluoromethyl)phenyl]methyl}-6-oxo-2-phenyl-1,6-dihydropyrimidine-4-carboxamide] | 3.8 | 3.1 | – | –

Second part, the compound after the results:

Row | Ki (Rhesus PDE2A3; [1]) [nM] | Ki (human PDE2A1; [2]) [nM] | Ki (Rhesus PDE2A3; Rhesus PDE2, Lab B, read-out: Rhesus PDE2 Ki (nM) - Lab B) [nM] | Ki (human PDE2A1; Human PDE2, Lab B, read-out: Human PDE2 Ki (nM) - Lab B) [nM] | Structure (SMILES)
15 | 3.3 | 2.4 | – | – | O=C(N[C@@H](c1ccc(SC(F)(F)F)cc1)C1CC1)c1cc(=O)[nH]c(-c2ccccc2)n1 [Example 178, N-[(R)-cyclopropyl{4-[(trifluoromethyl)sulfanyl]phenyl}methyl]-6-oxo-2-phenyl-1,6-dihydropyrimidine-4-carboxamide]
16 | 4 | 2.2 | – | – | CC[C@@H](NC(=O)c1cc(=O)[nH]c(-c2ccccc2)n1)c1ccc(OC(F)(F)F)cc1 [Example 179, 6-oxo-2-phenyl-N-{(1R)-1-[4-(trifluoromethoxy)phenyl]propyl}-1,6-dihydropyrimidine-4-carboxamide]
17 | 141 | 118 | – | – | O=C(NCc1ccc(C2CC2)cc1)c1cc(=O)[nH]c(-c2ccccc2)n1 [Example 182, N-(4-cyclopropylbenzyl)-6-oxo-2-phenyl-1,6-dihydropyrimidine-4-carboxamide]
18 | 6.4 | 4.1 | – | – | C[C@@H](NC(=O)c1cc(=O)[nH]c(-c2ccccc2)n1)c1ccc(CC(F)(F)F)cc1 [Example 183, 6-oxo-2-phenyl-N-{(1R)-1-[4-(2,2,2-trifluoromethyl)phenyl]ethyl}-1,6-dihydropyrimidine-4-carboxamide]
19 | 20 | 20 | – | – | C[C@@H](NC(=O)c1cc(=O)[nH]c(-c2ccccc2)n1)c1cc(F)c(C(F)(F)F)c(F)c1 [Example 184, N-{(1R)-1-[3,5-difluoro-4-(trifluoromethyl)phenyl]ethyl}-6-oxo-2-phenyl-1,6-dihydropyrimidine-4-carboxamide]
20 | 13 | 9.7 | – | – | O=C(NC(CO)c1ccc(C(F)(F)F)cc1)c1cc(=O)[nH]c(-c2ccccc2)n1 (stereo not drawn) [Example 185, N-{2-hydroxy-1-[4-(trifluoromethyl)phenyl]ethyl}-6-oxo-2-phenyl-1,6-dihydropyrimidine-4-carboxamide]
21 | 60 | 62 | – | – | CC(C)(NC(=O)c1cc(=O)[nH]c(-c2ccccc2)n1)c1ccc(SC(F)(F)F)cc1 [Example 186, N-(1-methyl-1-{4-[(trifluoromethyl)sulfanyl]phenyl}ethyl)-6-oxo-2-phenyl-1,6-dihydropyrimidine-4-carboxamide]
22 | 4.5 | 3.1 | – | – | COc1cc(OC(F)(F)F)ccc1C(C)NC(=O)c1cc(=O)[nH]c(-c2ccccc2)n1 (stereo not drawn) [Example 187, N-{1-[2-methoxy-4-(trifluoromethoxy)phenyl]ethyl}-6-oxo-2-phenyl-1,6-dihydropyrimidine-4-carboxamide]
23 | 10 | 9.7 | – | – | Cc1cc([C@@H](C)NC(=O)c2cc(=O)[nH]c(-c3ccccc3)n2)ccc1C(F)(F)F [Example 189]
24 | 6.4 | 6.1 | – | – | C[C@@H](NC(=O)c1cc(=O)[nH]c(-c2ccccc2)n1)c1ccc(C(F)(F)F)c(Cl)c1 [Example 190, N-{(1R)-1-[3-chloro-4-(trifluoromethyl)phenyl]ethyl}-6-oxo-2-phenyl-1,6-dihydropyrimidine-4-carboxamide]
25 | 3.4 | 1.2 | – | – | CC(C)[C@@H](NC(=O)c1cc(=O)[nH]c(C2CC2)n1)c1ccc(OC(F)(F)F)cc1 [Example 191, 2-cyclopropyl-N-{(1R)-2-methyl-1-[4-(trifluoromethoxy)phenyl]propyl}-6-oxo-1,6-dihydropyrimidine-4-carboxamide]
26 | 151 | 81 | – | – | COc1ccc2cc(C(C)NC(=O)c3cc(=O)[nH]c(C4CC4)n3)ccc2c1 (stereo not drawn) [Example 192, 2-cyclopropyl-N-[1-(6-methoxynaphthalen-2-yl)ethyl]-6-oxo-1,6-dihydropyrimidine-4-carboxamide]
27 | 3.9 | 1.3 | – | – | CC(C)[C@@H](NC(=O)c1cc(=O)[nH]c(C2CC2)n1)c1ccc(C(F)(F)F)cc1 [Example 193, 2-cyclopropyl-N-{(1R)-2-methyl-1-[4-(trifluoromethyl)phenyl]propyl}-6-oxo-1,6-dihydropyrimidine-4-carboxamide]
28 | 72 | 28 | – | – | CCc1ccc(C(C)NC(=O)c2cc(=O)[nH]c(C3CC3)n2)cc1 (stereo not drawn) [Example 194, 2-cyclopropyl-N-[1-(4-ethylphenyl)ethyl]-6-oxo-1,6-dihydropyrimidine-4-carboxamide]
29 | 33 | 18 | – | – | CC(NC(=O)c1cc(=O)[nH]c(C2CC2)n1)c1ccc(C2CC2)cc1 (stereo not drawn) [Example 195, 2-cyclopropyl-N-[1-(4-cyclopropylphenyl)ethyl]-6-oxo-1,6-dihydropyrimidine-4-carboxamide]
30 | 62 | 29 | – | – | O=C(NC1(c2ccc(C(F)(F)F)cc2)CCCC1)c1cc(=O)[nH]c(C2CC2)n1 [Example 197, 2-cyclopropyl-6-oxo-N-{1-[4-(trifluoromethyl)phenyl]cyclopentyl}-1,6-dihydropyrimidine-4-carboxamide]
31 | 96 | 59 | – | – | CC(C)(NC(=O)c1cc(=O)[nH]c(C2CC2)n1)c1ccc(OC(F)(F)F)c(F)c1 [Example 198]
32 | 12 | 7 | – | – | O=C(NC1(c2ccc(SC(F)(F)F)cc2)CC1)c1cc(=O)[nH]c(C2CC2)n1 [Example 199, 2-cyclopropyl-6-oxo-N-(1-{4-[(trifluoromethyl)sulfanyl]phenyl}cyclopropyl)-1,6-dihydropyrimidine-4-carboxamide]
